# Patent US6793938B2, “Biodegradable compositions for the controlled release of encapsulated substances” (Skye Pharma, Inc., priority 1998, dated 2004)
# Experiment: Serum amikacin after single oral administration by gavage
# Format: in vivo, male Harlan Sprague Dawley albino rats
# Conditions: rat, 20 mg amikacin per rat
# Experimental: The lipid-only, 1:1 lipid/polymer and the polymer-only pharmaceutical compositions with amikacin encapsulated therein, or unencapsulated amikacin as a solution at pH 8 was administered orally by gavage to 300 g male Harlan Sprague Dawley albino rats. The number of animals per group was six. The dose was 20 mg per rat and the volume was 2 mL. Serum was collected via venipuncture (saphenous vein) from unanesthetized animals at 15, 45, 90 min., 3, 8, 24, and 48 hours. The specimens were kept at −40° C. until analysis.
# The concentration of amikacin in serum was determined using a competitive particle concentration fluorescence immunoassay. Polystyrene beads (Idexx Research Product Division, Memphis, Tenn.) were first coated with anti-amikacin antibody (The Binding Site, San Diego, Calif.). The beads were incubated with a combination of fluorescent-labeled amikacin (The Binding Site) and serum containing amikacin which compete for the anti-amikacin antibody sites on the beads. The amount of fluorescent-labeled amikacin bound to the beads was measured by a fluorescence concentration analyzer (Idexx Research Product Division) which is inversely proportional to the amikacin concentration in serum.
compound,measurement,value
"NCC[C@H](O)C(=O)N[C@@H]1C[C@H](N)[C@@H](O[C@H]2O[C@H](CN)[C@@H](O)[C@H](O)[C@H]2O)[C@H](O)[C@H]1O[C@H]1O[C@H](CO)[C@@H](O)[C@H](N)[C@H]1O [unencapsulated amikacin, amikacin]",peak level of the concentration of amikacin in circulation,1.82 ± 0.73 µg/mL
same,time at which peak circulatory levels were reached,45 min
